# Source: patent US4454314A, “Antibacterial mycaminosyl tylonolide and related macrolide derivatives” (Pfizer Inc., priority 1982, dated 1984)
# Where two headings read alike, the source gives them in different places.
# Legend:
# [1] = tested on: infections by sensitive bacteria; assay: In vivo activity against acute experimental infections in mice (PD50); settings: Mus musculus, sc; subcutaneous; mice infected intraperitoneally, at least one LD100; organism not given; read-out: PD50 (dose which protects 50% of the animals from infection)
# Excerpt: In determining such activity, acute experimental infections are produced in mice by the intraperitoneal inoculation of the mice with a standardized culture of the test organism suspended in 5 percent hog gastric mucin. Infection severity is standarized so that the mice receive at least one LD100 dose of the organism (LD100 : the minimum inoculum of organism required to consistently kill 100 percent of the infected, nontreated control mice). The test compound is then subcutaneously or orally administered at various dosage levels to groups of infected mice. At the end of the test, the activity of the mixture is assessed by counting the number of survivors among treated animals at a given dose. Activity is expressed as the percentage of animals which survive at a given dose, or calculated as a PD50 (dose which protects 50% of the animals from infection).
# E. coli 470 = assay: In vitro antibacterial activity (MIC), BHI agar; assay type: cell-based; settings: read-out: Minimum Inhibitory Concentration (MIC)
# Procedure: (§1) The procedure which is followed is the one recommended by the International Collaborative Study on Antibiotic Sensitivity Testing [Ericcson and Sherris, Acta. Pathologica et Microbiologia Scandinav, Supp. 217, Sections A and B: 64-68 (1971)], and employs brain heart infusion (BHI) agar and the inocula replicating device. Overnight growth tubes are diluted 100 fold for use as the standard inoculum (20,000-10,000 cells in approximately 0.002 ml are placed on the agar surface; 20 ml of BHI agar/dish). Twelve 2 fold dilutions of the test compound are employed, with initial concentration of the test drug being 200 mcg/ml. Single colonies are disregarded when reading plates after 18 hours at 37° C. The susceptibility (MIC) of the test organism is accepted as the lowest concentration of compound capable of producing complete inhibition of growth as judged by the naked eye. A comparison of the in vitro activity of various compounds of the formulae (I) and (II) with tylonolide is recorded in Table 1.
# Staph. aur. 400 = assay: In vitro antibacterial activity (MIC), BHI agar; assay type: cell-based; settings: 18 hours at 37° C., read-out: Minimum Inhibitory Concentration (MIC)
# Procedure: as §1
# Strep. pyog. 203 = assay: In vitro antibacterial activity (MIC), BHI agar; assay type: cell-based; settings: 18 hours at 37° C., read-out: Minimum Inhibitory Concentration (MIC)
# Procedure: as §1
# Staph. epi. 111 = assay: In vitro antibacterial activity (MIC), BHI agar; assay type: cell-based; settings: 18 hours at 37° C., read-out: Minimum Inhibitory Concentration (MIC)
# Procedure: as §1
# Neiss. sic. = assay: In vitro antibacterial activity (MIC), BHI agar; assay type: cell-based; settings: 18 hours at 37° C., read-out: Minimum Inhibitory Concentration (MIC)
# Procedure: as §1
# Staph. aur. 5 = assay: In vitro antibacterial activity (MIC), BHI agar; assay type: cell-based; settings: 18 hours at 37° C., read-out: Minimum Inhibitory Concentration (MIC)
# Procedure: as §1
# Strep. faec. 6 = assay: In vitro antibacterial activity (MIC), BHI agar; assay type: cell-based; settings: 18 hours at 37° C., read-out: Minimum Inhibitory Concentration (MIC)
# Procedure: as §1
# Staph. epi. 126 = assay: In vitro antibacterial activity (MIC), BHI agar; assay type: cell-based; settings: 18 hours at 37° C., read-out: Minimum Inhibitory Concentration (MIC)
# Procedure: as §1
# Staph. epi. 87 = assay: In vitro antibacterial activity (MIC), BHI agar; assay type: cell-based; settings: read-out: Minimum Inhibitory Concentration (MIC)
# Procedure: as §1
# Strep. pneum. 12 = assay: In vitro antibacterial activity (MIC), BHI agar; assay type: cell-based; settings: 18 hours at 37° C., read-out: Minimum Inhibitory Concentration (MIC)
# Procedure: as §1
# Past. mult. 1 = assay: In vitro antibacterial activity (MIC), BHI agar; assay type: cell-based; settings: 18 hours at 37° C., read-out: Minimum Inhibitory Concentration (MIC)
# Procedure: as §1
# Staph. aur. 52 = assay: In vitro antibacterial activity (MIC), BHI agar; assay type: cell-based; settings: 18 hours at 37° C., read-out: Minimum Inhibitory Concentration (MIC)
# Procedure: as §1
# Bac. sub. 1 = assay: In vitro antibacterial activity (MIC), BHI agar; assay type: cell-based; settings: 18 hours at 37° C., read-out: Minimum Inhibitory Concentration (MIC)
# Procedure: as §1
# [2] = Escherichia coli, E. coli 470, BHI agar, 18 hours at 37° C.
Compound,ED50 [1],"MIC (E. coli 470; Escherichia coli, 470, 18 h)",MIC (Staph. aur. 400),MIC (Strep. pyog. 203),MIC (Staph. epi. 111),MIC (Neiss. sic.),MIC (Staph. aur. 5),MIC (Strep. faec. 6),MIC (Staph. epi. 126),MIC (Staph. epi. 87; 18 h),MIC (Strep. pneum. 12),MIC (Past. mult. 1),MIC (Staph. aur. 52),MIC (Bac. sub. 1),MIC (E. coli 470; [2]),"MIC (Staph. epi. 87; Staph. epi. 87, BHI agar, 18 hours at 37° C.)"
"CCC1OC(=O)CC(O)C(C)C(OC2OC(C)C(O)C(N(C)C)C2O)C(CC=O)CC(C)C(=O)C=CC(C)=CC1CO [(a), 5-(3,6-dideoxy-3-dimethylamino-beta-D-glucopyrnosyloxy)-6-formylmethyl-3-hydroxy-14-hydroxymethyl-4,8,12-trimethyl-9-oxo-10,12-heptadecadien-15-olide, reference compound]",3.12 mg/kg,3.12 µg/mL,1.56 µg/mL,0.39 µg/mL,1.56 µg/mL,6.25 µg/mL,0.78 µg/mL,0.78 µg/mL,0.78 µg/mL,3.12 µg/mL,0.1 µg/mL,1.56 µg/mL,0.78 µg/mL,,,
CCC1OC(=O)CC(O)C(C)C(OC2OC(C)C(O)C(N(C)C)C2O)C(CC=O)CC(C)C(=O)C=CC(C)=CC1COS(=O)(=O)c1ccc(C)cc1 (stereo not shown) [(b)],19 mg/kg,,0.78 µg/mL,0.2 µg/mL,1.56 µg/mL,1.56 µg/mL,0.78 µg/mL,0.39 µg/mL,1.56 µg/mL,,,3.12 µg/mL,0.78 µg/mL,0.78 µg/mL,,
CCC1OC(=O)CC(O)C(C)C(OC2OC(C)C(O)C(N(C)C)C2O)C(CC=NN(C)C)CC(C)C(=O)C=CC(C)=CC1COS(=O)(=O)c1ccc(C)cc1 (stereo not shown) [(c)],50 mg/kg,,0.2 µg/mL,0.05 µg/mL,0.1 µg/mL,0.78 µg/mL,0.1 µg/mL,0.1 µg/mL,1.56 µg/mL,,,3.12 µg/mL,0.2 µg/mL,0.2 µg/mL,,
CCC1OC(=O)CC(O)C(C)C(OC2OC(C)C(O)C(N(C)C)C2O)C(CC=O)CC(C)C(=O)C=CC(C)=CC1CI (stereo not shown) [(d)],,,1.56 µg/mL,0.1 µg/mL,0.78 µg/mL,0.78 µg/mL,0.39 µg/mL,3.12 µg/mL,6.25 µg/mL,,,,0.39 µg/mL,0.78 µg/mL,,
CCC1OC(=O)CC(O)C(C)C(OC2OC(C)C(O)C(N(C)C)C2O)C(CC=NN(C)C)CC(C)C(=O)C=CC(C)=CC1CI (stereo not shown) [(e)],> 50 mg/kg,,0.2 µg/mL,0.1 µg/mL,0.2 µg/mL,0.39 µg/mL,0.2 µg/mL,0.39 µg/mL,0.78 µg/mL,,,1.56 µg/mL,0.2 µg/mL,0.1 µg/mL,,
CCC1OC(=O)CC(OC(C)=O)C(C)C(OC2OC(C)C(O)C(N(C)C)C2O)C(CC=O)CC(C)C(=O)C=CC(C)=CC1CN(C)C (stereo not shown) [(f)],,,3.12 µg/mL,0.39 µg/mL,1.56 µg/mL,3.12 µg/mL,3.12 µg/mL,6.25 µg/mL,1.56 µg/mL,,,6.25 µg/mL,3.12 µg/mL,0.78 µg/mL,,
CCC1OC(=O)CC(O)C(C)C(OC2OC(C)C(O)C(N(C)C)C2O)C(CC=O)CC(C)C(=O)C=CC(C)=CC1CCl (stereo not shown) [(g)],13 mg/kg,,0.39 µg/mL,0.39 µg/mL,0.2 µg/mL,1.56 µg/mL,0.78 µg/mL,0.78 µg/mL,0.78 µg/mL,,0.02 µg/mL,1.56 µg/mL,0.78 µg/mL,0.1 µg/mL,0.78 µg/mL,25 µg/mL
CCC1OC(=O)CC(O)C(C)C(OC2OC(C)C(O)C(N(C)C)C2O)C(CC=O)CC(C)C(=O)C=CC(C)=CC1CN(C)C (stereo not shown) [(h)],2.4 mg/kg,,1.56 µg/mL,0.2 µg/mL,0.78 µg/mL,12.5 µg/mL,0.78 µg/mL,3.12 µg/mL,3.12 µg/mL,,0.39 µg/mL,1.56 µg/mL,1.56 µg/mL,,1.56 µg/mL,
